Where two headings read alike, the source gives them in different places.
Molecular target: T1, MST1 (Homo sapiens, UniProt Q13043)
T1 sequence (Q13043 1-487): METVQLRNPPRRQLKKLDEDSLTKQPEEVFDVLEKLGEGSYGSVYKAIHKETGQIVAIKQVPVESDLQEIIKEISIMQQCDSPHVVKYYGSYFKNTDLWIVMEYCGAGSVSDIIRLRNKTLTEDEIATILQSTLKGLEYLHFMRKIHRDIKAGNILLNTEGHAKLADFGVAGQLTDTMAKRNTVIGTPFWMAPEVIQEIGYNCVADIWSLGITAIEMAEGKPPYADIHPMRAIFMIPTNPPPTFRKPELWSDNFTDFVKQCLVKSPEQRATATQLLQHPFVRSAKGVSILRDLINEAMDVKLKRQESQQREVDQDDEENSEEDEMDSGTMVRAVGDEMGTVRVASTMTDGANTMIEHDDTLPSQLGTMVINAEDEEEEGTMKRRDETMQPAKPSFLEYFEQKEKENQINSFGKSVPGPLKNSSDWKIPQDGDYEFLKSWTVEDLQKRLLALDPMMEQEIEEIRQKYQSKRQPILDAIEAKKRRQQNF
Assay: In vitro measurement of MST1 inhibition (Z′-Lyte kinase assay)
Assay type: biochemical
Experimental: Assays were performed in low-volume 384-well black proxiplates (Perkin Elmer, PE-Blk-Proxi-6008269). Eight compounds were first diluted into LDV (Echo) plates using a Multiprobe, at a starting concentration of 1 mM compound in 100% DMSO. Using the ECHO, 75 nl compound was pinged into 384-well proxiplates. The starting concentration of compound in each assay plate is 7.5 uM, followed by 3-fold dilutions, to give quadruplicate ten-point concentration curves. A 3× solution of MST1 enzyme in kinase buffer (Invitrogen, PR4940C) was added to wells containing compound or DMSO controls, followed by a 10 minute preincubation step. Reactions were initiated by adding 5 μL of a mixture of ATP and Z′-Lyte S/T Pep 7 (Invitrogen, PV3180) and proceeded at RT for 1 hour. […] At the end of the kinase reaction, 10 ul of developing solution (Invitrogen, catalog #PR4876B; development buffer A diluted […] in development buffer B) was added to each well and incubated at RT for 1 hr. All wells were read on a Tecan at 400 nm excitation and 460 nm/530 nm emission. Plus and minus enzyme controls were used to calculate percent inhibition and IC50 curves were generated using Excel.

[1] = 1 μM ATP, read-out: IC50 (μM) 1 μM ATP
[2] = 50 μM ATP, read-out: IC50 (μM) 50 μM ATP

IC50 [1] [µM]	IC50 [2] [µM]	Compound
< 0.01	< 0.01	N#CC1(c2ccc(-c3cnc(N)c(-c4ccc5c(c4)CCNC5=O)n3)cc2)CCCC1 [1-(4-(5-amino-6-(1-oxo-1,2,3,4-tetrahydroisoquinolin-6-yl)pyrazin-2-yl)phenyl)cyclopentanecarbonitrile]
< 0.05	< 0.01	N#CC1(c2ccc(-c3cnc(N)c(-c4ccc5c(=O)[nH]ccc5c4)n3)cc2)CC1 [1-(4-(5-amino-6-(1-oxo-1,2-dihydroisoquinolin-6-yl)pyrazin-2-yl)phenyl)cyclopropanecarbonitrile]
< 0.01	< 0.01	N#CC1(c2ccc(-c3cnc(N)c(-c4ccc5c(c4)C4(CC4)CNC5=O)n3)cc2)CC1 [1-(4-(5-amino-6-(1′-oxo-2′,3′-dihydro-1′H-spiro[cyclopropane-1,4′-isoquinolin]-6′-yl)pyrazin-2-yl)phenyl)cyclopropanecarbonitrile]
< 0.05	< 0.01	N#CC1(c2ccc(-c3cnc(N)c(-c4ccc5c(c4)C4(CC4)NC5=O)n3)cc2)CC1 [1-(4-(5-amino-6-(3′-oxospiro[cyclopropane-1,1′-isoindolin]-6′-yl)pyrazin-2-yl)phenyl)cyclopropanecarbonitrile]
< 0.01	< 0.01	CC1(C)CNC(=O)c2ccc(-c3nc(-c4ccc(C5(C#N)CC5)cc4)cnc3N)cc21 [1-(4-(5-amino-6-(4,4-dimethyl-1-oxo-1,2,3,4-tetrahydroisoquinolin-6-yl)pyrazin-2-yl)phenyl)cyclopropanecarbonitrile]
< 0.15	< 0.15	N#CC1(c2ccc(-c3cc(-c4ccc5c(c4)CCNC5=O)c(N)nn3)cc2)CC1 [1-(4-(6-amino-5-(1-oxo-1,2,3,4-tetrahydroisoquinolin-6-yl)pyridazin-3-yl)phenyl)cyclopropanecarbonitrile]
< 0.05	< 0.05	N#CC1(c2ccc(-c3cnc(N)c(-c4ccc5c(c4)CCNC5=O)c3)cc2)CC1 [1-(4-(6-amino-5-(1-oxo-1,2,3,4-tetrahydroisoquinolin-6-yl)pyridin-3-yl)phenyl)cyclopropanecarbonitrile]
< 0.15	< 0.05	N#CCn1cc(-c2cnc(N)c(-c3ccc4c(c3)CCNC4=O)n2)cn1 [2-(4-(5-amino-6-(1-oxo-1,2,3,4-tetrahydroisoquinolin-6-yl)pyrazin-2-yl)-1H-pyrazol-1-yl)acetonitrile]
< 0.05	< 0.01	Cc1cc(-c2cnc(N)c(-c3ccc4c(c3)CCNC4=O)n2)ccc1C(C)(C)C#N [2-(4-(5-amino-6-(1-oxo-1,2,3,4-tetrahydroisoquinolin-6-yl)pyrazin-2-yl)-2-methylphenyl)-2-methylpropanenitrile]
< 0.05	< 0.01	CC(C)(Oc1ccc(-c2cnc(N)c(-c3ccc4c(c3)CCNC4=O)n2)cc1)C(N)=O [2-(4-(5-amino-6-(1-oxo-1,2,3,4-tetrahydroisoquinolin-6-yl)pyrazin-2-yl)phenoxy)-2-methylpropanamide]
< 0.15	< 0.05	N#CCOc1ccc(-c2cnc(N)c(-c3ccc4c(c3)CCNC4=O)n2)cc1 [2-(4-(5-amino-6-(1-oxo-1,2,3,4-tetrahydroisoquinolin-6-yl)pyrazin-2-yl)phenoxy)acetonitrile]
< 0.05	< 0.01	CC(C)(C#N)c1ccc(-c2cnc(N)c(-c3ccc4c(c3)CCNC4=O)n2)cc1 [2-(4-(5-amino-6-(1-oxo-1,2,3,4-tetrahydroisoquinolin-6-yl)pyrazin-2-yl)phenyl)-2-methylpropanenitrile]
< 0.05	< 0.01	N#CC1CC1c1ccc(-c2cnc(N)c(-c3ccc4c(c3)CCNC4=O)n2)cc1 (stereo not shown) [2-(4-(5-amino-6-(1-oxo-1,2,3,4-tetrahydroisoquinolin-6-yl)pyrazin-2-yl)phenyl)cyclopropanecarbonitrile]
< 0.05	< 0.01	CC(C)(C#N)c1ccc(-c2cnc(N)c(-c3ccc4c(=O)[nH]ccc4c3)n2)cc1 [2-(4-(5-amino-6-(1-oxo-1,2-dihydroisoquinolin-6-yl)pyrazin-2-yl)phenyl)-2-methylpropanenitrile]
